Patent US20170274087A1, “SACCHARIDE ANALOGS AND AGENTS FOR THE DIAGNOSIS AND THERAPY OF BACTERIAL INFECTIONS” (Emory University, priority 2014, published 2017)

Columns and labels:
maltase = assay: Stability to maltase hydrolysis (glucose released)
Protocol: The stability of thiomaltose and maltose was investigated in the presence of maltase. Thiomaltose and maltose were incubated with 10 units of maltase, which is an enzyme that breaks maltose into two glucose molecules. The hydrolysis kinetics of thiomaltose and maltose was determined by quantifying the glucose released from thiomaltose or maltose hydrolysis.

P. aeruginosa = P. aeruginosa growth inhibition (absorption, OD600); type: cell-based; conditions: up to a 10 μM concentration; multidrug-resistant clinical isolate
Protocol: TM-R and free radezolid were incubated with P. aeruginosa for 24 hours. OD600 were used to determine the bacteria growth.
P. aeruginosa (5×10^8 CFUs) were incubated with various concentrations of either radezolid or TMR and the MIC was determined via absorption measurements. The P. aeruginosa strain used in this experiment was a clinical isolate, resistant to multiple antibiotics, obtained from a blood stream infection.

Giardia = Giardia growth assay in 96 well plates (coulter counter); type: cell-based; conditions: 48 hours, 37° C., DMSO at or below 0.1%
Protocol: Methods for evaluating EC50 measurements in Giardia were established. Giardia cells were cultured in 96 well microtiter plates in anaerobic BD Bio-Bags (Becton Dickinson). Growth was assayed with a MoxiZ coulter counter (Orflo Technologies). The TMM and metroinadazole stock solutions contained DMSO to improve solubility. Giardia growth in 96 well plates with various volumes of TYDK media 10 and DMSO concentrations were evaluated over several days at 37° C. Cells grew more consistently in higher volumes of media and noted reduced growth in DMSO concentrations above 0.25%. […] Growth was evaluated after 48 hours.

OCC1OC(SC2C(CO)OC(O)C(O)C2O)C(O)C(O)C1O (stereo not drawn) [thiomaltose]
hydrolyzed by maltase (maltase; 3 hours, 10 units of maltase): less than 1%
maltase hydrolysis (in words) (maltase; 3 hours, 10 units of maltase): negligible hydrolysis

OC[C@H]1O[C@H](O[C@H]2[C@H](O)[C@@H](O)[C@H](O)O[C@@H]2CO)[C@H](O)[C@@H](O)[C@@H]1O [maltose]
half-life (maltase): ~30 min
maltase hydrolysis (in words) (maltase; 3 hours, 10 units of maltase): hydrolyzed completely

CC(=O)NC[C@H]1CN(c2ccc(-c3ccc(CNCc4cnn[nH]4)cc3)c(F)c2)C(=O)O1 [radezolid]
efficacy against P. aeruginosa growth (in words) (P. aeruginosa): no efficacy

Cc1ncc([N+](=O)[O-])n1CCO [metronidazole]
EC50 (Giardia): 1700 nM
